Source: paper PMC9176681, “Evaluation of a flavonoid library for inhibition of interaction of HIV-1 integrase with human LEDGF/p75 towards a structure–activity relationship” (Annals of Medicine, 2022)
Where “and” joins values, the source holds several entries; their conditions need not be identical. Identical values can stand only once.

molecular target: T1, IN-LEDGF/p75 interaction (Human immunodeficiency virus type 1 group M subtype B, UniProt P12497, C1427S/F1332K); assay: not given; design: method as in PMID 24663024; conditions: previous experiment result; read-out: IC50, inhibition of IN-LEDGF/p75 interaction, previous experiment result; cited from earlier work
T1 construct: His6 (C); made in house; host or cells: E. coli

SMILES	IC50 [nM]
Cc1nc2ccccc2c(-c2ccc3c4c(ccnc24)CCO3)c1[C@H](OC(C)(C)C)C(=O)O [BI224436, reference compound]	11

molecular target: T1, IN-LEDGF/p75 interaction; assay: biochemical; assay type: binding, HIV-1; conditions: not given
Experimental: The inhibitory activities against the IBD-IN interaction were tested using HTRF assays according to a previous study. […] “Protein MIX” was prepared by mixing His6-HIV-1 IN (final concentration of 50 nM) and GST-IBD (final concentration of 25) in the assay buffer (25 mM Tris-HCl pH 7.5, 150 mM NaCl, 1 mg/ml BSA, 0.1% NP40, 2 mM MgCl2). […] To the 8 μl “protein MIX”, 2 μl of DMSO or compound (50 µM) dissolved in DMSO was added and mixed thoroughly. The concentrations of DMSO in the assay should be no more than 4%. The plate was incubated for 30 min at 25 °C. Then 10 μl premixed antibodies were added and mixed. The assay plate was incubated in the dark for 1 h at 25 °C. DMSO instead of the compound was used as a negative control. BI224436 was used as a positive compound for inhibition of IN-LEDGF/p75 interaction. […] Data were analysed and visualised in GraphPad Prism 5.0.

SMILES	IC50 [nM]
Cc1nc2ccccc2c(-c2ccc3c4c(ccnc24)CCO3)c1[C@H](OC(C)(C)C)C(=O)O [BI224436, reference compound]	18.8

same assay, conditions: HTRF, 50 μM final concentration

SMILES	inhibitory activity against IN-LEDGF/p75 interaction (in words)
O=c1c(-c2ccc(O)cc2)coc2cc(O)cc(O)c12 [genistein]	worst inhibitory activity
COc1cc(-c2oc3cc(O)cc(O)c3c(=O)c2O)ccc1O [compound 3]	reduced
Oc1cc(O)c2c(c1)O[C@H](c1cc(O)c(O)c(O)c1)[C@H](O)C2 [compound 68]	effectively blocked
COc1cc(O)c2c(=O)c(OC)c(-c3ccc(O)c(OC)c3)oc2c1 [compound 14]	reduced
O=C1c2c(O)cc(O)cc2OC(c2cc(O)c(O)c(O)c2)[C@H]1O (stereo partly shown) [compound 47]	efficiently blocked
COc1cc(O)c(CC=C(C)C)c(O)c1C(=O)/C=C/c1ccc(O)cc1 [compound 95]	drop in protein-protein interaction disruption
COc1cc(C2CC(=O)c3c(cc(O)c(OC)c3O)O2)cc(O)c1OC (stereo not shown) [compound 50]	loss of activity
Oc1cc(O)c2c(c1)O[C@H](c1ccc(O)c(O)c1)[C@H](O)C2 [compound 71]	effectively blocked
COc1ccc(-c2oc3cc(O)cc(O)c3c(=O)c2OC)cc1O [compound 15]	reduced
COc1cc(O)c(C(=O)/C=C/c2ccccc2)c(O)c1OC [compound 99]	drop in protein-protein interaction disruption
COc1cc2oc(-c3ccc(O)c(O)c3)c(OC)c(=O)c2c(O)c1OC [compound 16]	effectively inhibited
C=C(C)C(O)Cc1c(O)cc(OC)c(C(=O)/C=C/c2ccc(O)cc2)c1O (stereo not shown) [compound 96]	drop in protein-protein interaction disruption
CC(C)=CCc1cc(-c2oc3cc(O)c(CC=C(C)C)c(O)c3c(=O)c2O)ccc1O [compound 1]	reduced
COc1ccc(-c2oc3cc(O)cc(O)c3c(=O)c2O)cc1O [compound 12]	reduced
COc1ccc(-c2oc3cc(O)cc(O)c3c(=O)c2O)cc1 [compound 4]	reduced
COc1cc(-c2oc3cc(OC)c(OC)c(O)c3c(=O)c2OC)ccc1O [compound 19]	reduced
COc1cc(O)c(OC)c(O)c1C(=O)/C=C/c1ccccc1 [compound 89]	drop in protein-protein interaction disruption
COc1cc(O)c2c(c1)OC(c1ccc(O)cc1)CC2=O (stereo not shown) [compound 49]	loss of activity
CC(C)=CCc1cc(-c2oc3cc(O)cc(O)c3c(=O)c2O)ccc1O [compound 2]	reduced
COc1cc(-c2oc3cc(O)c(OC)c(O)c3c(=O)c2OC)ccc1O [compound 17]	reduced
O=c1cc(-c2ccc(O)c(O)c2)oc2cc(O)cc(O)c12 [compound 30, Luteolin]	most potent
COc1c(O)cc2c(c1O)C(=O)CC(c1ccc(O)cc1)O2 (stereo not shown) [compound 52]	loss of activity
COc1c(O)cc(O)c2c1O[C@@H](c1ccccc1O)CC2=O [compound 60]	loss of activity
O=c1c(O)c(-c2ccc(O)c(O)c2)oc2cc(O)cc(O)c12 [compound 10]	effectively inhibited
CC(C)=CCc1c(O)ccc2c1O[C@@H](c1ccc(O)cc1)CC2=O [compound 64]	loss of activity
Oc1cc(O)c2c(c1)O[C@H](c1ccc(O)c(O)c1)[C@@H](O)C2 [compound 70]	effectively blocked
O=C1c2ccc(O)cc2OC(c2cc(O)c(O)c(O)c2)C1O (stereo not shown) [compound 43]	efficiently blocked
COc1ccccc1/C=C/C(=O)c1c(OC)cc(O)c(OC)c1O [compound 93]	drop in protein-protein interaction disruption

molecular target: T2, IN (Human immunodeficiency virus type 1 group M subtype B, UniProt P12497, C1427S/F1332K); assay: Biolayer interferometry (BLI) binding assay; design: species or system HIV-1; conditions: 30 °C, PBS with 0.01% Tween-20
T2 construct: His6 (C); made in house; host or cells: E. coli

SMILES	Kd
O=c1c(-c2ccc(O)cc2)coc2cc(O)cc(O)c12 [genistein]	3600 nM and 2700 nM
O=C1C[C@@H](c2ccc(O)cc2)Oc2cc(O)cc(O)c21 [naringenin]	1400 nM and 1900 nM
COc1cc(O)cc(O)c1C(=O)/C=C/c1ccc(O)cc1 [helichrysetin]	2700 nM
O=c1c(O)c(-c2cc(O)c(O)c(O)c2)oc2cc(O)cc(O)c12 [myricetin]	1000 nM
O=c1cc(-c2ccc(O)c(O)c2)oc2cc(O)cc(O)c12 [compound 30, Luteolin]	1300 nM
Oc1cc(O)c2c(c1)O[C@H](c1ccc(O)c(O)c1)[C@H](O)C2 [epicatechin]	1700 nM
O=C1c2ccc(O)cc2OC(c2cc(O)c(O)c(O)c2)C1O (stereo not shown) [dihydrorobinetin]	1400 nM
